Source: PMC5059851, “Inhibition of Hedgehog-dependent tumors and cancer stem cells by a newly identified naturally occurring chemotype” (Cell Death & Disease, 2016)

Biological target: T1, human Smo D473H (Homo sapiens, UniProt Q99835, D473H)
T1 construct: Myc-DDK; expressed in transfected cells; host or cells: HEK293T
Assay: Bodipy-Cyclopamine (BC) binding assay, HEK293T cells transfected with human Smo D473H
Conditions: resistant Smo mutants versus WT
Description: Cells were washed in PBS supplemented with 0.5% fetal bovine serum, fixed in 4% paraformaldehyde in phosphate-buffered saline (PBS) for 10 min, and incubated for 2 h at 37 °C both in the same medium supplemented with Bodipy-Cyclopamine (5 nM) and the studied compounds. The cells were permeabilized with Triton X100 (Sigma) 0.2%. Dako Fluorescent mounting (Dako, Carpinteria, CA, USA) was used as mounting medium and Hoechst reagent for staining of the cell nuclei. Bodipy (green) and Hoechst (blue) signals were analyzed in three to four representative fields per coverslip (× 20 magnification, 1000 cells/field). Data were expressed as percentage of BC incorporation observed with BC alone.[95]

T1 sequence (Q99835 28-787 D473H): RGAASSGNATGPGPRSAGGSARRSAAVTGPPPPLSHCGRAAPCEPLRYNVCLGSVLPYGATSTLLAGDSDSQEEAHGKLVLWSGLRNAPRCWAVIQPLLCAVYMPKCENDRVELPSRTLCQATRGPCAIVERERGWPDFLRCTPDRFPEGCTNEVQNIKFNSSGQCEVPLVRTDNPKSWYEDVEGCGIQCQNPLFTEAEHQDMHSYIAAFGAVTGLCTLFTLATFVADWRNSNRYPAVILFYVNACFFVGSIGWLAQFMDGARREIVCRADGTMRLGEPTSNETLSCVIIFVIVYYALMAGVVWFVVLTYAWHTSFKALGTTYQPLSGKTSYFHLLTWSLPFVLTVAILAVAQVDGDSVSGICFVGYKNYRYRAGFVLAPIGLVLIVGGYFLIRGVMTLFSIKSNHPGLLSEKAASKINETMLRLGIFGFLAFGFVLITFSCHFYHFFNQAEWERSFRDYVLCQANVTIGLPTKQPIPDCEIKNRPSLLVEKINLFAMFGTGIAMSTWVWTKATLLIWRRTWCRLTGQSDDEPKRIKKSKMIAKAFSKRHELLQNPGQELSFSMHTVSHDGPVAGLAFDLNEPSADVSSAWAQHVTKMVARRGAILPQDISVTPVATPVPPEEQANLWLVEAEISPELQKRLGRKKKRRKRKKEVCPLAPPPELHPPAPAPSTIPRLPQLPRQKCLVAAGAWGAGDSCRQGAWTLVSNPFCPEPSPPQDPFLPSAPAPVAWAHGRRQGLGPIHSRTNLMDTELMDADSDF

loss of affinity for the resistant Smo mutants in binding assay | Compound
about 1000 fold | CS(=O)(=O)c1ccc(C(=O)Nc2ccc(Cl)c(-c3ccccn3)c2)c(Cl)c1 [Vismodegib, reference compound]

Test system: Hh pathway (Gli-responsive firefly luciferase reporter)
Assay: Hh-dependent Gli-luciferase reporter assay in SAG-treated NIH3T3 Shh-Light II cells
Type: cell-based
Conditions: SAG (200 nM)-treated NIH3T3 Shh-Light II cells, 48 h, normalized to Renilla; N.A. = Not Active
Description: The inhibitory properties of the potential Smo antagonists 1–17 were investigated in a luciferase reporter assay that is widely used for characterizing Hh inhibitors. NIH3T3 Shh-Light II cells, stably incorporating a Gli-responsive firefly luciferase reporter (Gli-RE),[25] were treated with the synthetic Smo agonist SAG[24] alone or in combination with the selected small molecules to evaluate their dose–response ability to suppress Hh pathway. […] We excluded the possibility that inhibition activity in this assay was mediated by cytotoxicity because no decrease was shown in the luciferase assay control Renilla as observed instead for 13–17.
The luciferase assay was performed in Shh-Light II cells, stably incorporating a Gli-responsive luciferase reporter and the pRL-TK Renilla (normalization control), treated for 48 h with SAG (200 nM) and the studied compounds. Luciferase and Renilla activity were assayed with a dual-luciferase assay system according to the manufacturer's instruction (Biotium Inc., Hayward, CA, USA). Results are expressed as luciferase/Renilla ratios and represent the mean±S.D. of three experiments, each performed in triplicate.

Compound | IC50
3-benzo[1,3]dioxol-5-yl-1-(2,4,5-trimethoxy-phenyl)-propan-1-one [Compound 7] | 38.5 ± 3.57 µM
CC1=C[C@@H]2c3c(O)cc(/C=C/c4ccc(O)cc4O)cc3OC3(c4ccc(O)c5c4OC(C)(C)C=C5)Oc4cc(O)ccc4[C@@H](C1)[C@H]23 (stereo partly drawn) [Compound 6, (3aS,13bS,13cR)-6-[(E)-2-(2,4-dihydroxyphenyl)vinyl]-8a-(5-hydroxy-2,2-dimethyl-2H-chromen-8-yl)-2-methyl-1,8a,13b,13c-tetrahydro-3aH-benzo[3,4]isochromeno[1,8-bc]chromene-4,11-diol] | 30 ± 1.93 µM
CC(C)=CCc1c(O)ccc(C(=O)[C@H]2[C@@H](c3c(O)cc(/C=C/c4ccc(O)cc4O)cc3O)C=C(C)C[C@@H]2c2ccc(O)cc2O)c1O [Compound 8, [2,4-dihydroxy-3-(3-methyl-2-buten-1-yl)phenyl][(1R,2S,6S)-6-(2,4-dihydroxyphenyl)-2-{4-[(E)-2-(2,4-dihydroxyphenyl)vinyl]-2,6-dihydroxyphenyl}-4-methyl-3-cyclohexen-1-yl]methanone] | 27.5 ± 2.67 µM
COc1cc(OC)c2c(=O)c(-c3ccc4c(c3)OCO4)coc2c1 [Compound 9, 3-(1,3-benzodioxol-5-yl)-5,7-dimethoxy-4H-chromen-4-one] | 24.1 ± 1.6 µM
COc1ccc(C=CC(=O)c2c(OC)cc(OC)c(OC)c2OC)cc1OC [Compound 10, 3-(3,4-dimethoxy-phenyl)-1-(2,3,4,6-tetramethoxy-phenyl)-2-propen-1-one] | 31.3 ± 2.29 µM
COc1c(C2COc3cc(O)c(CC=C(C)C)c(O)c3C2=O)ccc(O)c1CC=C(C)C (stereo not shown) [Compound 11, 5,7-dihydroxy-3-[4-hydroxy-2-methoxy-3-(3-methyl-2-buten-1-yl)phenyl]-6-(3-methyl-2-buten-1-yl)-2,3-dihydro-4H-chromen-4-one] | 22.6 µM
